Measurements from patent US7511055B2, “Naphthyridin derivatives” (Hoffmann-La Roche Inc., priority 2005, dated 2009).

Target: T1, human mGlu 5a receptor (Homo sapiens, UniProt P41594)
T1 construct: expressed in transfected cells; host or cells: EBNA cells (transient transfection); cell membrane homogenates
Test: [3H]MPEP competition binding on membranes of EBNA cells transfected with human mGlu 5a receptor
Settings: competition with [3H]MPEP (2 nM), 1 h at 4° C., Ki=IC50/[1+L/Kd]
Protocol: The pharmacological activity of the compounds was tested using the following method: For binding experiments, cDNA encoding human mGlu 5a receptor was transiently transfected into EBNA cells using a procedure described by Schlaeger and Christensen [Cytotechnology 15:1-13 (1998)]. Cell membrane homogenates were stored at −80° C. until the day of assay where upon they were thawed and resuspended and polytronised in 15 mM Tris-HCl, 120 mM NaCl, 100 mM KCl, 25 mM CaCl2, 25 mM MgCl2 binding buffer at pH 7.4 to a final assay concentration of 20 μg protein/well.
Saturation isotherms were determined by addition of twelve [^3H]MPEP concentrations (0.04-100 nM) to these membranes (in a total volume of 200 μl) for 1 h at 4° C. Competition experiments were performed with a fixed concentration of [^3H]MPEP (2 nM) and IC50 values of test compounds evaluated using 11 concentrations (0.3-10,000 nM). Incubations were performed for 1 h at 4° C.
At the end of the incubation, membranes were filtered onto unifilter (96-well white microplate with bonded GF/C filter preincubated 1 h in 0.1% PEI in wash buffer, Packard BioScience, Meriden, Conn.) with a Filtermate 96 harvester (Packard BioScience) and washed 3 times with cold 50 mM Tris-HCl, pH 7.4 buffer. Nonspecific binding was measured in the presence of 10 μM MPEP. The radioactivity on the filter was counted (3 min) on a Packard Top-count microplate scintillation counter with quenching correction after addition of 45 μl of microscint 40 (Canberra Packard S.A., Zürich, Switzerland) and shaking for 20 min.
The inhibition (antagonists) curves were fitted with a four parameter logistic equation giving IC50, and Hill coefficient using iterative non linear curve fitting software (Xcel fit).
For binding experiments the Ki values of the compounds tested are given. The Ki value is defined by the following formula: Ki=IC50/[1+L/Kd] in which the IC50 values are those concentrations of the compounds tested which cause 50% inhibition of the competing radioligand ([^3H]MPEP). L is the concentration of radioligand used in the binding experiment and the Kd value of the radioligand is empirically determined for each batch of membranes prepared.

T1 sequence (P41594 21-1180 isoform P41594-2 limits assumed): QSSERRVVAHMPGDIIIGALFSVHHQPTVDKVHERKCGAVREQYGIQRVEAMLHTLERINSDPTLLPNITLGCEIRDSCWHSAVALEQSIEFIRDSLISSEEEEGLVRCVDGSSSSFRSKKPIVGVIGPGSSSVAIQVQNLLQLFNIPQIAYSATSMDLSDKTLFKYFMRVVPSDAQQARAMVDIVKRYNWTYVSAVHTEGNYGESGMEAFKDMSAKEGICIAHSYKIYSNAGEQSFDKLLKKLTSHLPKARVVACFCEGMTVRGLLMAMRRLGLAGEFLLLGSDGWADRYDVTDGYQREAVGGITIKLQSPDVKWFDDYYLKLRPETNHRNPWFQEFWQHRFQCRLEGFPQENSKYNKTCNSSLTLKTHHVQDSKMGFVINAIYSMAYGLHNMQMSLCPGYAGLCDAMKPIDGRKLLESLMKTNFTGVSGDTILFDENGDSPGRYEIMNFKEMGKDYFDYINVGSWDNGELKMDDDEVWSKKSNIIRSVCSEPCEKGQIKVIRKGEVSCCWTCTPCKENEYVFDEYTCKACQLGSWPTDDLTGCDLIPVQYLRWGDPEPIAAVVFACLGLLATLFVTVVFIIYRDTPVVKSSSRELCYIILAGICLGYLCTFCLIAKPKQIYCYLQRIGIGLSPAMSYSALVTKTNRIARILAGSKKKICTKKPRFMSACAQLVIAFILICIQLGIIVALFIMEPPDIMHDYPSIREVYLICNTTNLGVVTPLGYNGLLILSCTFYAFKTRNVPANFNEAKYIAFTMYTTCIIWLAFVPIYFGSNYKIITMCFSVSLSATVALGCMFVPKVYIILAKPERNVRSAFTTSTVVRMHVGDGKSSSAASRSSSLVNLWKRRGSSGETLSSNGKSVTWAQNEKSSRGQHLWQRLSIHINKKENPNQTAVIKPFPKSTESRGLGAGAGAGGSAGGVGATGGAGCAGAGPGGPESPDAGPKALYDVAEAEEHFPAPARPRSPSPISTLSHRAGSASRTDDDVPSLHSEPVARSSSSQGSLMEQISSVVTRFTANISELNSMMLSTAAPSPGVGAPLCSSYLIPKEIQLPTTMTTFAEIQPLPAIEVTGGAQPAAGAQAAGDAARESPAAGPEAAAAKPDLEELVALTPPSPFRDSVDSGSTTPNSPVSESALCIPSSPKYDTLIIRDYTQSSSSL

SMILES | Ki [nM]
Clc1cc(Nc2ncc(-c3cncnc3)c3cccnc23)ccn1 [Example 18, (2-Chloro-pyridin-4-yl)-(5-pyrimidin-5-yl-[1,7]naphthyridin-8-yl)-amine] | 41
Clc1cccc(Nc2ncc(-c3cccnc3)c3cccnc23)c1 [Example 7, (3-Chloro-phenyl)-(5-pyridin-3-yl-[1,7]naphthyridin-8-yl)-amine] | 18
Fc1ccc(Nc2ncc(-c3cncnc3)c3cccnc23)nc1 [Example 19, (5-Fluoro-pyridin-2-yl)-(5-pyrimidin-5-yl-[1,7]naphthyridin-8-yl)-amine] | 44
Clc1cc(Nc2ncc(-c3cccnc3)c3cccnc23)ccn1 [Example 8, (2-Chloro-pyridin-4-yl)-(5-pyridin-3-yl-[1,7]naphthyridin-8-yl)-amine] | 38
COc1ccc(-c2cnc(Nc3ccnc(Cl)c3)c3ncccc23)cn1 [Example 12, (2-Chloro-pyridin-4-yl)-[5-(6-methoxy-pyridin-3-yl)-[1,7]naphthyridin-8-yl]-amine] | 56
Cc1cccc(Nc2nccc3cccnc23)n1 [Example 1, (6-Methyl-pyridin-2-yl)-[1,7]naphthyridin-8-yl-amine] | 25
Clc1cccc(Nc2ncc(-c3ccc(Cl)nc3)c3cccnc23)c1 [Example 11, (3-Chloro-phenyl)-[5-(6-chloro-pyridin-3-yl)-[1,7]naphthyridin-8-yl]-amine] | 8
Fc1ccc(Nc2ncc(-c3cccnc3)c3cccnc23)nc1 [Example 10, (5-Fluoro-pyridin-2-yl)-(5-pyridin-3-yl-[1,7]naphthyridin-8-yl)-amine] | 19
Clc1cccc(Nc2nccc3cccnc23)c1 [Example 2, (3-Chloro-phenyl)-[1,7]naphthyridin-8-yl-amine] | 89

Further lines, results first:

Ki [nM] | SMILES
38 | Cc1ccc2c(-c3cccc(F)c3)cnc(Nc3ccn(C)n3)c2n1 [Example 68, [5-(3-Fluoro-phenyl)-2-methyl-[1,7]naphthyridin-8-yl]-(1-methyl-1H-pyrazol-3-yl)-amine]
51 | Cc1csc(Nc2ncc(-c3cncc(C(F)(F)F)n3)c3ccc(C)nc23)n1 [Example 81, (4-Methyl-thiazol-2-yl)-[2-methyl-5-(6-trifluoromethyl-pyrazin-2-yl)-[1,7]naphthyridin-8-yl]-amine]
62 | Cc1csc(Nc2nccc3cccnc23)n1 [Example 5, (4-Methyl-thiazol-2-yl)-[1,7]naphthyridin-8-yl-amine]
41 | COc1cncc(-c2cnc(Nc3ccc(F)cn3)c3ncccc23)c1 [Example 17, (5-Fluoro-pyridin-2-yl)-[5-(5-methoxy-pyridin-3-yl)-[1,7]naphthyridin-8-yl]-amine]
56 | COc1cccc(-c2cnc(Nc3nc(C)cs3)c3nc(C)ccc23)c1 [Example 42, [5-(3-Methoxy-phenyl)-2-methyl-[1,7]naphthyridin-8-yl]-(4-methyl-thiazol-2-yl)-amine]
51 | Cc1csc(Nc2ncc(-c3cccc(C(F)(F)F)c3)c3ccc(C)nc23)n1 [Example 43, (4-Methyl-thiazol-2-yl)-[2-methyl-5-(3-trifluoromethyl-phenyl)-[1,7]naphthyridin-8-yl]-amine]
66 | Fc1ccc(Nc2ncc(-c3cncc(F)c3)c3cccnc23)nc1 [Example 15, (5-Fluoro-pyridin-2-yl)-[5-(5-fluoro-pyridin-3-yl)-[1,7]naphthyridin-8-yl]-amine]
33 | Cc1cccc(Nc2ncc(-c3cccnc3)c3cccnc23)n1 [Example 6, (6-Methyl-pyridin-2-yl)-(5-pyridin-3-yl-[1,7]naphthyridin-8-yl)-amine]
66 | Fc1cncc(-c2cnc(Nc3ccnc(Cl)c3)c3ncccc23)c1 [Example 14, (2-Chloro-pyridin-4-yl)-[5-(5-fluoro-pyridin-3-yl)-[1,7]naphthyridin-8-yl]-amine]
86 | Cc1ccc(Nc2ncc(-c3cccnc3)c3cccnc23)nc1 [Example 9, (5-Methyl-pyridin-2-yl)-(5-pyridin-3-yl-[1,7]naphthyridin-8-yl)-amine]
